Test results taken from ChEMBL document CHEMBL3286118, “Synthesis and in vitro antitumor activity of novel 2-alkyl-5-methoxycarbonyl-11-methyl-6H-pyrido[4,3-b]carbazol-2-ium and 2-alkylellipticin-2-ium chloride derivatives” (Eur J Med Chem, 2014).

assay: Cytotoxicity against human HeLaS3 cells assessed as cell viability after 24 to 72 hrs by MTT assay; format: functional, cell-based; conditions: HeLa S3

SMILES	IC50 [µM]
Cc1c2c[n+](CCCCCN)ccc2c(C)c2c1c1cc(O)ccc1n2C	19.3
COC(=O)c1c2cc[n+](CCOCCN)cc2c(C)c2c1[nH]c1ccccc12	41.3
Cc1c2c[n+](CCOCCN)ccc2c(C)c2c1c1cc(O)ccc1n2C	17.9
Cc1c2cc[n+](CCOCCN)cc2c(C)c2c1[nH]c1ccccc12	27.8
Cc1c2cc[n+](CCOCCN)cc2c(C)c2c1[nH]c1ccc(O)cc12	17.7
Cc1c2cc[n+](C)cc2c(C)c2c1[nH]c1ccccc12	2.9
CNC(=O)NCCOCC[n+]1ccc2c(C)c3[nH]c4ccccc4c3c(C)c2c1	75.3
CNC(=O)NCCOCC[n+]1ccc2c(C)c3[nH]c4ccc(O)cc4c3c(C)c2c1	29.4
CNC(=O)NCCOCC[n+]1ccc2c(C)c3c(c(C)c2c1)c1cc(O)ccc1n3C	6.2
CNC(=O)NCCCCC[n+]1ccc2c(C)c3c(c(C)c2c1)c1cc(O)ccc1n3C	32.5
COC(=O)c1c2cc[n+](CCOCCNC(=O)N(C)N=O)cc2c(C)c2c1[nH]c1ccccc12	51.9
Cc1c2cc[n+](CCOCCNC(=O)N(C)N=O)cc2c(C)c2c1[nH]c1ccc(O)cc12	60
Cc1c2c[n+](CCOCCNC(=O)N(C)N=O)ccc2c(C)c2c1c1cc(O)ccc1n2C	18.4
COC(=O)c1c2cc[n+](CCN)cc2c(C)c2c1[nH]c1ccccc12	5.8
COC(=O)c1c2cc[n+](CCCN)cc2c(C)c2c1[nH]c1ccccc12	2.5
CNC(=O)NCC[n+]1ccc2c(C(=O)OC)c3[nH]c4ccccc4c3c(C)c2c1	6.6
COC(=O)c1c2cc[n+](CCNC(=O)N(C)N=O)cc2c(C)c2c1[nH]c1ccccc12	15
CNC(=O)NCCC[n+]1ccc2c(C(=O)OC)c3[nH]c4ccccc4c3c(C)c2c1	24
COC(=O)c1c2cc[n+](CCCNC(=O)N(C)N=O)cc2c(C)c2c1[nH]c1ccccc12	1.3
Cc1c2ccncc2c(C)c2c1[nH]c1ccccc12 [ELLIPTECINE]	2.1
CN(N=O)C(N)=O [N-METHYL-N-NITROSUREA]	> 100
